Test results as given in patent US5182367A, “5-lipoxygenase activating protein” (priority 1990, dated 1993).
pIC50: −log10 of the molar value.

What was measured:
leukotriene biosynthesis = leukotriene biosynthesis / production (cells not specified); format: cell-based; details: result in words, cells not given
18kD protein (FLAP) [1] = molecular target: T1, 18kD protein (FLAP) (Homo sapiens, UniProt P20292); experiment: photoaffinity labelling of the 18kD protein with 125I-L-669,083; format: binding; details: for inhibition of photoaffinity labelling of the 18kD protein: 125I-L-669,083 probe, result in words
T1 construct: Incubation of ^125 I-L-669,083 with neutrophil extracts followed by irradiation with ultraviolet light; from tissue; host or cells: neutrophil extracts / human leukocyte membranes (endogenous protein)
T1 sequence (P20292 1-161): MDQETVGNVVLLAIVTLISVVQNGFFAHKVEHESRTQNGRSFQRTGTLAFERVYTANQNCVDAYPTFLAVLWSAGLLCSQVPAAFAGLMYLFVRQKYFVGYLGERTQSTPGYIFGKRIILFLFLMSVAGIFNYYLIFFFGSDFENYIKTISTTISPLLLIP
Text: The cellular target of MK-886 was identified by its specific labelling with an I^125 radio-labelled photoaffinity probe (^125 I-L-669,083) and by its retention on agarose gels to which analogues of MK-886 had been bound. […] This protein co-migrated on SDS-polyacrylamide gels with the photoaffinity-labelled protein. The 18kD protein comprised a minor portion of the […]-centrifugation pellet protein and was essentially absent from other cellular fractions.
A polyclonal rabbit antibody was prepared to the N-terminal 39 amino acids of the 18kD protein. The peptide immunogen was prepared by fusion of the DNA sequence coding for the peptide to the N-terminus of Che Y protein, and its expression in and purification from E. coli (Gan, Z. R., Gene 79, 159-166 (1989)). […] When human leukocyte membranes labelled with the ^125 I-L-669,083 photoaffinity probe were immunoprecipitated with the antipeptide antibody, a single labelled protein of Mr 18,000 was observed which was absent in membranes labelled in the presence of competing MK-886.

18kD protein (FLAP) [2] = molecular target: T2, 18kD protein (FLAP) (Rattus norvegicus, UniProt P20291); experiment: elution of the 18kD protein from MK-886 analogue affinity columns; format: binding, rat and human; details: solubilized neutrophil membranes, result in words
T2 sequence (P20291 1-161): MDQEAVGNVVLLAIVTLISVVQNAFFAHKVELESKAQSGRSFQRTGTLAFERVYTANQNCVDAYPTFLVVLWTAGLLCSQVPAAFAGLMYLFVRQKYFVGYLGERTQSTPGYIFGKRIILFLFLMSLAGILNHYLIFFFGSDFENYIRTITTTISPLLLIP
Experimental: Rat peritoneal neutrophils (Ham, E. A. et al. Proc. Natn. Acad. Sci. USA 80, 4349-4353 (1983)) and human peripheral neutrophils (Boyum, A. Scand. J. Clin. Lab. Invest. (suppl. 97) 21, 77-89 (1968)) at 10^8 cells/ml were sonicated in 50 mM Tris-HCl buffer, pH 7.4, 140 mM NaCl, 2 mM EDTA, 1 mM DTT (dithiotreitol), 10% glycerol (homogenization buffer), together with the protease inhibitors 1 mM phenylmethylsulphonyl fluoride, […], and 10 mM furyl saccharine. After removal of 1000 g and 10,000 g-centrifugation pellets, the 100,000 g pellet was resuspended (3 mg/ml) in the homogenization buffer.
To purify FLAP, the microsome suspension was solubilized on ice for 30 minutes in 50 mM Tris-HCl buffer, pH 7.4, with 140 mM NaCl, 0.5 mM DTT, 5% glycerol and 1% CHAPS detergent (3-[(3-cholamidopropyl)-dimethylammonio]-1-propanesulfonate). After centrifugation for 10 minutes at 30,000 g, the supernatant was applied to 3 ml columns (6×10^9 cell equivalents per column) containing the affinity gel which was prepared by coupling MK-886 in THF (tetrahydrofuran) to pre-activated Affi-Gel 10, capping with ethanolamine,and washing with isopropanol. The columns were washed with […] solubilization buffer for 16 hours at 5° C. and eluted for 1 hour with four column volumes of buffer containing 100 μM MK-886.

[3] = system: osteosarcoma 143 cell line expressing 5-LO and FLAP; experiment: A23187-stimulated LT synthesis in the 5-LO/FLAP cell line; format: cell-based, human
Experimental: (§1) When the parental osteosarcoma 143 cells or the cells expressing 5-LO or FLAP alone were treated with the Ca^2+ ionophore A23187, no arachidonic acid metabolites were detected. […] A23187-treated rat neutrophils produced these products, as well as 5-HETE and the LTB4 metabolites 20-hydroxy LTB4 and 20-carboxy LTB4. The 5-LO/FLAP cell line produced only 14% of the neutrophil level of LTB4 (0.15 nmol/mg protein versus 1.1 nmol/mg protein), while it produced 41% as much of the LTA4 hydrolysis products (0.064 nmol 6-trans LTB4 and 0.059 nmol 6-trans-12-epi LTB4 /mg protein versus 0.18 nmol 6-trans LTB4 and 0.12 nmol 6-trans-12-epi LTB4 /mg protein).
(§2) Normal rat peritoneal neutrophils were prepared as described by Ham, E. A. et al. (1983, supra). Osteosarcoma 143 cell lines expressing 5-LO were isolated by the method of Rouzer, C. A. et al., J. Biol. Chem. 263, 10135-10140 (1988). The expression vector used contains the CMV immediate early promoter which drives the expression of the 5-LO gene, a hygromycin resistance gene as a selectable marker, and the EBV origin of replication (Rouzer et al., supra). An EcoRI fragment derived from the RBL-1 cDNA clone containing the cDNA insert for rat FLAP was cloned into the EcoRI site of the vector pSVLneo (Dixon, R. A. F. et al., Nature 326, 73-79 (1987)). […]

[4] = system: rat peritoneal neutrophils; experiment: A23187-stimulated LT synthesis in neutrophils; format: cell-based
Experimental: as §1, §2

[5] = system: leukotriene synthesis in human leukocytes; experiment: inhibition of leukotriene synthesis in human leukocytes; format: cell-based; details: Leukocyte; human leukocytes at similar protein concentrations

Compound	inhibition of photoaffinity labelling of the 18kD protein (18kD protein (FLAP) [1])	elution of the 18kD protein from affinity columns/gels (18kD protein (FLAP) [2])	inhibition of leukotriene biosynthesis / production (leukotriene biosynthesis)	LT synthesis blocked [3]	LT synthesis blocked [4]	pIC50 (18kD protein (FLAP) [1])	pIC50 [5]
O=c1ccc2nc3ccccc3sc-2c1Cl [L-615,919, 4-chloro-3H-phenothiazin-3-one]	–	–	–	blocked LT synthesis	blocked LT synthesis	–	–
CC(C)c1ccc2c(c1)c(SC(C)(C)C)c(CC(C)(C)C(=O)O)n2Cc1ccc(Cl)cc1 [MK-886, 3-[1-(4-chlorobenzyl)-3-t-butylthio-5-isopropylindol-2-yl]-2,2-dimethylpropanoic acid]	–	eluted by MK-886	–	blocked LT synthesis	blocked LT synthesis	7.10	7.00
Clc1ccc(C(c2ccc(Cl)cc2)n2cc[n+](CC(OCc3ccc(Cl)cc3Cl)c3ccc(Cl)cc3Cl)c2)cc1 (stereo not drawn) [calmidazolium]	nor inhibited photoaffinity labelling	neither eluted the 18kD protein	inhibitory effects on leukotriene production	–	–	–	–
CC(Cc1ccc(O)c(O)c1)C(C)Cc1ccc(O)c(O)c1 (stereo not drawn) [nordihydroguairaretic acid]	nor inhibited photoaffinity labelling	neither eluted the 18kD protein	inhibitory effects on leukotriene production	–	–	–	–
CN1CCN(CCCN2c3ccccc3Sc3ccc(C(F)(F)F)cc32)CC1 [trifluoroperazine]	nor inhibited photoaffinity labelling	–	inhibitory effects on leukotriene production	–	–	–	–

Continued, in another order:

inhibition of photoaffinity labelling of the 18kD protein (18kD protein (FLAP) [1])	elution of the 18kD protein from affinity columns/gels (18kD protein (FLAP) [2])	Compound	inhibition of leukotriene biosynthesis / production (leukotriene biosynthesis)	LT synthesis blocked [3]	LT synthesis blocked [4]	pIC50 (18kD protein (FLAP) [1])	pIC50 [5]
did not inhibit photoaffinity labelling	nor did they elute this protein	COc1ccc2c(c1)c(C(C)C(=O)O)c(C)n2Cc1ccc(Cl)cc1 [L-583,916, 2-(1-p-chlorobenzyl-5-methoxy-2-methylindol-3-yl)propionic acid]	do not inhibit leukotriene biosynthesis	–	–	–	–
nor inhibited photoaffinity labelling	neither eluted the 18kD protein	COc1ccc2nc3cc(OC)c(=O)c(Br)c-3sc2c1 [L-651,392]	inhibitory effects on leukotriene production	–	–	–	–
